Source: patent US10202371B2, “Oxazolidin-2-one-pyrimidine derivatives and the use thereof as phosphatidylinositol-3-kinase inhibitors” (Novartis AG, priority 2012, dated 2019)

Columns and labels:
human mTOR (GST-mTOR) = human mTOR (GST-mTOR) (Homo sapiens (Human), UniProt P42345); experiment: Binding assay mTor (Lanthascreen kinase binding assay); details: Tracer-314
Text: Catalytically active human PI3Kα, PI3Kβ, PI3Kδ, and mTOR were cloned, expressed and purtified as described (Maira S M, Stauffer F, Brueggen J, Furet P, Schnell C, Fritsch C, Brachmann S, Chène P, de Pover A, Schoemaker K, Fabbro D, Gabriel D, Simonen M, Murphy L, Finan P, Sellers W, Garcia-Echeverria C (2008), Mol Cancer Ther. 7:1851-63 and Maira S M, Pecchi S, Brueggen J, Huh K, Schnell C, Fritsch C, Nagel T, Wiesmann M, Brachmann S, Dorsch M, Chène P, Schoemaker K, De Pover A, Menezes D, Fabbro D, Sellers W, Garcia-Echeverria C, Voliva CF (2011), Mol. Cancer Ther. accepted).
TR-FRET assays for protein kinases uses a long-lifetime lanthanide Terbium or Europium chelates as the donor species which overcome interference by compound autofluorescence or light scatter from precipitated compounds, by introducing a delay after excitation by a flashlamp excitation source. Results are often expressed as a ratio of the intensities of the acceptor and donor fluorophores. The ratiometric nature of such a value corrects for differences in assay volumes between wells, as well as corrects for quenching effects due to colored compounds.
Binding Assays are based on the binding and displacement of an Alexa Fluor® 647-labeled, ATP-competitive kinase inhibitors to the kinase of interest. Invitrogen's “Kinase Tracers” have been developed to address a wide range of kinase targets and are based on ATP-competitive kinase inhibitors, making them suitable for detection of any compounds that bind to the ATP site or to an allosteric site altering the conformation of the ATP site. Inhibitors that bind the ATP site include both Type I kinase inhibitors, which bind solely to the ATP site, and Type II inhibitors (e.g., Gleevec®/Imatinib, Sorafenib, BIRB-796), which bind to both the ATP site and a hydrophobic site exposed in the DFG-out (non-active) conformation. […] The sole exception was a substrate-competitive compound, and thus not a true allosteric inhibitor.
In contrast to most fluorescence-based kinase activity assays, LanthaScreen® Eu^3+ Kinase Binding Assays can be read continuously, which facilitates evaluation of compounds with slow binding kinetics. Also, unlike most activity assays, binding assays can be performed using either active or non-activated kinase preparations, which enables characterization of compounds that bind preferentially to non-activated kinases, such as Gleevec®/imatinib and some allosteric inhibitors.
In the Lanthascreen™ kinase binding assay, the donor (Eu^3+-anti-GST antibody) is excited at 340 nm and will transfer its energy to the acceptor (Alexa Fluor® 647-labeled ATP-competitive kinase inhibitor=Tracer-314). The emission from the Tracer-314 (Alexa Fluor® 647 inhibitor) can be monitored with a filter centered at 665 nm because it is located between the emission peaks of the donor, which is measured at 615/620 nm. The binding of both, the Tracer-314 and Eu^3+-anti-GST antibody, to the kinase results in a high degree of FRET from the Eu^3+-donor fluorophore to the Alexa-Fluor® 647-acceptor fluorophore on the Tracer-314. Binding of an inhibitor to the kinase competes for binding with the tracer, resulting in a loss of FRET.
50 nL of compound dilutions were dispensed onto white 384-well small volume polystyrene plate as described in section 2.2. Then 5 μL of GST-mTOR and Europium-anti-GST antibody followed by 5 μL of tracer-314 (final assay volume 10 μL) are incubated at RT. The standard reaction buffer for the Lanthascreen™ kinase binding assay contained 50 mM HEPES pH 7.5, 5 mM MgCl2, 1 mM EGTA, 0.01% Pluronic F-127. Plates are read 60 mins later in a Synergy2 reader using an integration time of 0.2 microseconds and a delay of 0.1 microseconds.
To calculate the emission ratio, the signal emitted at 665 nm from the acceptor (Alexa Fluor® 647-labeled Tracer-314) is divided by the signal emitted at 620 nm from the donor (Eu^3+ anti-GST antibody) […]

[1] = biological target: mTOR (TSC1-/- MEFs cells) (Mus musculus (Mouse), UniProt Q9JLN9); experiment: Cellular assay mTOR, phospho-T389 S6K1 SureFire in TSC1-/- MEF cells; type: cell-based; details: read-out: mTOR TS6K(T389)_TSC1ko/ IC50
Text: A cell based assay (384-well format) was developed for determination of compound effects on cellular mTOR activity in MEF (mouse embryo fibrobrasts) cells derived from mice lacking TSC1 (Tuberosclerosis Complex1) a potent suppressor of mTOR activity. Due to lack of TSC1, mTOR is constitutively activated resulting in permanent phoshorylation of Thr 389 of S6 kinase 1 (S6K1) which is one of the downstream targets of mTOR.
Using a SureFire Kit that enables to determine the phosphorylation of Thr389 on the S6K1 an assay was developed, validated and implemented in the Alpha-Screen format that allows the quantitative determination of phospho-T389 of S6K1 in cell lysates. […] These were in agreement with those values obtained with the biochemical mTOR ATP-binding assay enabling a quantitative comparison of potency of mTOR inhibitors.
TSC1−/− MEFs cells (Kwiatkowski, D. J., Zhang, H., Bandura, J. L., Heiberger, K. M., Glogauer, M., el-Hashemite, N., and Onda, H. (2002) Hum. Mol. Genet. 11, 525-534) were cultured in DMEM high glucose medium supplemented with 10% FBS (Invitrogen), 2 mM Glutamine and 1% (w/v) Penicillin/Streptomycin at 37° C., 5% CO2.
The SureFire kit for determination of P70S6kinase phosphorylation was purchased from Perkin Elmer (p70S6K p-T389, #TGR70S50K) and the assay was performed according to the instructions of the supplier and according to the generic method for SureFire assays. Shortly, 5 μL cell lysate per well were transferred to 384-well white proxy-plates (for luminescent readout) and mixed with […] and […] (final volume: 12 μL). After 3 h incubation in the dark at RT luminescence was read with the Envision Reader (Perkin Elmer). Untreated cells were used as control (high control) and cells treated with 3 μM BEZ235 were used as low control. The assay window between the signals obtained for the high and the low controls were defined as 100% and compound effects were expressed as percent inhibition. IC50 values were calculated from the dose response curves by graphical extrapolation.

[2] = Photostability in light stability chamber; type: physicochemical; details: 1.0 mg/ml in ethanol, 19620 kJ/m^2 over 13 h, 15° C., UPLC 254 nm
Protocol: Samples investigated for light stability were treated in a light stability chamber (Atlas CPS+, Serial Number 0704013). Solutions of 1.0 mg/ml in ethanol were prepared for each molecule and aliquots of 0.5 mL were dispensed into suitable micro tubes. All measurements were done in duplicate and compared to a reference wrapped in aluminium foil during light exposure. Solutions were exposed to 19620 kJ/m^2 over 13 h. Samples were kept at 15° C. during the experiment. […] The peak areas were automatically integrated, and the degradation percentage calculated as the difference between the corresponding peak area percentage of the reference sample and the average peak area percentage of the exposed samples (duplicate).

Structure (SMILES)	IC50 (human mTOR (GST-mTOR))	IC50 [1]	% degradation in photostability assay (average) [2]
Nc1ncc(-c2cc(N3C(=O)O[C@@H](c4ccc(OCCCO)cc4)[C@@H]3CO)nc(N3CCOCC3)n2)c(C(F)(F)F)n1 [Example 14]	490 nM	724 nM	8%
Nc1ncc(-c2cc(N3C(=O)O[C@@H](c4ccccc4)[C@@H]3CO)nc(N3CCOCC3)n2)c(C(F)(F)F)n1 [Example 10]	1010 nM	221 nM	7%
COCCOc1ccc([C@@H]2OC(=O)N(c3cc(-c4cnc(N)nc4C(F)(F)F)nc(N4CCOCC4)n3)[C@H]2CO)cc1 [Example 12]	750 nM	274 nM	12%
C[C@H]1[C@@H](c2nccs2)OC(=O)N1c1cc(-c2cnc(N)nc2C(F)(F)F)nc(N2CCOCC2)n1 [Example 11]	870 nM	747 nM	
Nc1ncc(-c2cc(N3C(=O)O[C@@H](c4ccc(OCCO)cc4)[C@@H]3CO)nc(N3CCOCC3)n2)c(C(F)(F)F)n1 [Example 13]	230 nM	1070 nM	4%
CCC1C(c2cccnc2)OC(=O)N1c1cc(-c2cnc(N)nc2C(F)(F)F)nc(N2CCOCC2)n1 (stereo not drawn) [Example 8]	960 nM		
CC[C@H]1[C@H](c2nccs2)OC(=O)N1c1cc(-c2cnc(N)nc2C(F)(F)F)nc(N2CCOCC2)n1 [Example 7]	2700 nM		
COc1ccc([C@@H]2OC(=O)N(c3cc(-c4cnc(N)nc4C(F)(F)F)nc(N4CCOCC4)n3)[C@H]2CO)cc1 [Example 3, (4S,5S)-3-(2′-Amino-2-morpholino-4′-(trifluoromethyl)-[4,5′-bipyrimidin]-6-yl)-4-(hydroxymethyl)-5-(4-methoxyphenyl)oxazolidin-2-one]	850 nM	159 nM	3%
CC[C@H]1[C@H](c2ccc(OC)cc2)OC(=O)N1c1cc(-c2cnc(N)nc2C(F)(F)F)nc(N2CCOCC2)n1 (relative stereo) [Example 2, (4S*,5S*)-3-(2′-amino-2-morpholino-4′-(trifluoromethyl)-[4,5′-bipyrimidin]-6-yl)-4-ethyl-5-(4-methoxyphenyl)oxazolidin-2-one]	2800 nM		3%
C[C@H]1[C@H](c2ccccc2)OC(=O)N1c1cc(-c2cnc(N)nc2C(F)(F)F)nc(N2CCOCC2)n1 [Example 5]	2250 nM	371 nM	17%
C[C@H]1[C@H](c2nccs2)OC(=O)N1c1cc(-c2cnc(N)nc2C(F)(F)F)nc(N2CCOCC2)n1 [Example 1, (4S,5R)-3-(2′-Amino-2-morpholin-4-yl-4′-trifluoromethyl-[4,5′]bipyrimidinyl-6-yl)-4-methyl-5-thiazol-2-yl-oxazolidin-2-one]	251 nM	243 nM	8%
